Where a name gives a salt, the structure may show the parent alone.
Biological target: human KDR protein in HEK-293 cells (Homo sapiens (Human), UniProt P35968)
Assay: KDR Cell Assay (phospho-KDR in HEK-293 cells expressing inducible KDR)
Type: cell-based
Conditions: pKDR Cell HEK 10% FBS IC50, HEK-293 cells expressing inducible KDR, VEGF stimulated
How it was run: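 HEK-293 cells with inducible human KDR were treated with compound for 1 h in DMEM (0.25% DMSO final), then lysed. Phospho-KDR was quantified by Meso Scale immunoassay, expressed as percent of control, and IC50 taken where a 4-parameter logistic fit crossed 50 POC.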

Chain of human KDR protein in HEK-293 cells (P35968 20-1356): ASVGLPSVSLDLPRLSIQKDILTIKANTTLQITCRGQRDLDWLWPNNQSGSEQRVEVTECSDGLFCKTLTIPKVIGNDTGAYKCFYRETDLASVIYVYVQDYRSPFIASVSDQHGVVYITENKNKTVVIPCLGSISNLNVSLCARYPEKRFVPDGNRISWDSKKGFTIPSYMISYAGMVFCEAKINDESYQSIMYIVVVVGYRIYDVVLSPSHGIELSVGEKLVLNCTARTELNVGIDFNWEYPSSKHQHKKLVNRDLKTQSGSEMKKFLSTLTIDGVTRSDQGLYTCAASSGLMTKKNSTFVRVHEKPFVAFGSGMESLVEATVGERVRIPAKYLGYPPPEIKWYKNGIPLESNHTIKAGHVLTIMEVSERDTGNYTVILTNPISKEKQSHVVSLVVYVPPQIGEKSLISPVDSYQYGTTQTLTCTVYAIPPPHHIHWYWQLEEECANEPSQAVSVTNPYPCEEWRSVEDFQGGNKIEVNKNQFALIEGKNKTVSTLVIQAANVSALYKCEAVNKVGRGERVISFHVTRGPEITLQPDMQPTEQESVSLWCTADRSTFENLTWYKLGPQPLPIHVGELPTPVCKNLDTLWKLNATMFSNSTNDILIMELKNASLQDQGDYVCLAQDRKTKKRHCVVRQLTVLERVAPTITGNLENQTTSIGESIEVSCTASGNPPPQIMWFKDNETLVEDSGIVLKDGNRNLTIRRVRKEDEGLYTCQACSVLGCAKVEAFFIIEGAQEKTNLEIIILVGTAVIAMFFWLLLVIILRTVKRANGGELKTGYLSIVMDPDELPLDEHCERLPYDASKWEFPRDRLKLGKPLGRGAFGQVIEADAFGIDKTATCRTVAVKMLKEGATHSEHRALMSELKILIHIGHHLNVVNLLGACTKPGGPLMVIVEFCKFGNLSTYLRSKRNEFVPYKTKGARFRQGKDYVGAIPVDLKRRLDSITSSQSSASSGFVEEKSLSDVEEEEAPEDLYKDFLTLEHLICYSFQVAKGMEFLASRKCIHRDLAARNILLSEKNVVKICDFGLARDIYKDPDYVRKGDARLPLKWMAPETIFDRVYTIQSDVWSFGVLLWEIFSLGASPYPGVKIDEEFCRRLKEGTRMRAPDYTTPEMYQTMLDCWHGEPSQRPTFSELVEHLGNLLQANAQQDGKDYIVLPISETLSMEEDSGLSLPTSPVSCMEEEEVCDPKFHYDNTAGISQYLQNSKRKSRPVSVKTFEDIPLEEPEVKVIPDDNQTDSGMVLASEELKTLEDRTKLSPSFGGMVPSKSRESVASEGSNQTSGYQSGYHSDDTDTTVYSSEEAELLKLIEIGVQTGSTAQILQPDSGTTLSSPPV

Row | Structure (SMILES) | IC50 (10% FBS) [nM] | IC50 [nM]
1 | Cn1cc(-c2cc(-c3ccc(N4CC5CCC(C4)N5C(=O)OC(C)(C)C)nc3)c3c(C#N)cnn3c2)cn1 [Example 173, tert-butyl 3-(5-(3-cyano-6-(1-methyl-1H-pyrazol-4-yl)pyrazolo[1,5-a]pyridin-4-yl)pyridin-2-yl)-3,8-diazabicyclo[3.2.1]octane-8-carboxylate] | 1270 | 
2 | Cn1cc(-c2cc(-c3ccc(N4CCN([C@@H]5CCC[C@H]5O)CC4)nc3)c3c(C#N)cnn3c2)cn1 [Example 163, 4-(6-(4-((1r,2r)-2-hydroxycyclopentyl)piperazin-1-yl)pyridin-3-yl)-6-(1-methyl-1H-pyrazol-4-yl)pyrazolo[1,5-a]pyridine-3-carbonitrile] | 991 | 
3 | Cn1cc(-c2cc(-c3ccc(N4CCN(C(=O)C5CC5)CC4)nc3)c3c(C#N)cnn3c2)cn1 [Example 68, 4-(6-(4-(cyclopropanecarbonyl)piperazin-1-yl)pyridin-3-yl)-6-(1-methyl-1H-pyrazol-4-yl)pyrazolo[1,5-a]pyridine-3-carbonitrile] | 789 | 
4 | Cn1cc(-c2cc(-c3ccc(N4CCN(Cc5ccccc5Cl)CC4)nc3)c3c(C#N)cnn3c2)cn1 [Example 454, 4-(6-(4-(2-chlorobenzyl)piperazin-1-yl)pyridin-3-yl)-6-(1-methyl-1H-pyrazol-4-yl)pyrazolo[1,5-a]pyridine-3-carbonitrile] |  | 698
5 | CCCN1CCN(c2ccc(-c3cc(-c4cnn(C)c4)cn4ncc(C#N)c34)cn2)CC1 [Example 408, 6-(1-methyl-1H-pyrazol-4-yl)-4-(6-(4-propylpiperazin-1-yl)pyridin-3-yl)pyrazolo[1,5-a]pyridine-3-carbonitrile] |  | 1300
6 | Cn1cc(-c2cc(-c3ccc(N4[C@@H]5CC[C@H]4C[C@@H](N)C5)nc3)c3c(C#N)cnn3c2)cn1 [Example 195, 4-(6-((1R,3r,5S)-3-amino-8-azabicyclo[3.2.1]octan-8-yl)pyridin-3-yl)-6-(1-methyl-1H-pyrazol-4-yl)pyrazolo[1,5-a]pyridine-3-carbonitrile dihydrochloride] | 247 | 
7 | COc1ccc(CN2CCN(c3ccc(-c4cc(-c5cnn(C)c5)cn5ncc(C#N)c45)cn3)CC2)cn1 [Example 474, 4-(6-(4-((6-methoxypyridin-3-yl)methyl)piperazin-1-yl)pyridin-3-yl)-6-(1-methyl-1H-pyrazol-4-yl)pyrazolo[1,5-a]pyridine-3-carbonitrile] |  | 305
8 | Cn1cc(-c2cc(-c3ccc(N4CCN(C(=O)C(CO)c5ccccc5)CC4)nc3)c3c(C#N)cnn3c2)cn1 (centres unmarked) [Example 16, 4-(6-(4-(3-hydroxy-2-phenylpropanoyl)piperazin-1-yl)pyridin-3-yl)-6-(1-methyl-1H-pyrazol-4-yl)pyrazolo[1,5-a]pyridine-3-carbonitrile] | 435 | 
9 | Cn1cc(-c2cc(-c3ccc(N4CCN(C(=O)C(C)(C)c5ccccc5)CC4)nc3)c3c(C#N)cnn3c2)cn1 [Example 26, 6-(1-methyl-1H-pyrazol-4-yl)-4-(6-(4-(2-methyl-2-phenylpropanoyl)piperazin-1-yl)pyridin-3-yl)pyrazolo[1,5-a]pyridine-3-carbonitrile] | 476 | 
10 | Cn1cc(-c2cc(-c3ccc(N4CCN(C(=O)C5(c6ccccc6)CCC5)CC4)nc3)c3c(C#N)cnn3c2)cn1 [Example 27, 6-(1-methyl-1H-pyrazol-4-yl)-4-(6-(4-(1-phenylcyclobutane-1-carbonyl)piperazin-1-yl)pyridin-3-yl)pyrazolo[1,5-a]pyridine-3-carbonitrile] | 651 | 
11 | Cn1cc(-c2cc(-c3ccc(N4CCN(S(=O)(=O)CC5CC5)CC4)nc3)c3c(C#N)cnn3c2)cn1 [Example 87, 4-(6-(4-((cyclopropylmethyl)sulfonyl)piperazin-1-yl)pyridin-3-yl)-6-(1-methyl-1H-pyrazol-4-yl)pyrazolo[1,5-a]pyridine-3-carbonitrile] | 5.8 | 
12 | Cn1cc(-c2cc(-c3ccc(N4C[C@@H]5C[C@H]4CN5Cc4ccccc4)nc3)c3c(C#N)cnn3c2)cn1 [Example 483, 4-(6-((1S,4S)-5-benzyl-2,5-diazabicyclo[2.2.1]heptan-2-yl)pyridin-3-yl)-6-(1-methyl-1H-pyrazol-4-yl)pyrazolo[1,5-a]pyridine-3-carbonitrile] |  | 77.1
13 | COc1ccccc1N(C)C(=O)N1CCN(c2ccc(-c3cc(-c4cnn(C)c4)cn4ncc(C#N)c34)cn2)CC1 [Example 382, 4-(5-(3-cyano-6-(1-methyl-1H-pyrazol-4-yl)pyrazolo[1,5-a]pyridin-4-yl)pyridine-2-yl)-N-(2-methoxyphenyl)-N-methylpiperazine-1-carboxamide] |  | 1710
14 | Cn1cc(-c2cc(-c3ccc(N4CCC5(CCCN5C(=O)OC(C)(C)C)CC4)nc3)c3c(C#N)cnn3c2)cn1 [Example 513, tert-butyl 8-(5-(3-cyano-6-(1-methyl-1H-pyrazol-4-yl)pyrazolo[1,5-a]pyridin-4-yl)pyridin-2-yl)-1,8-diazaspiro[4.5]decane-1-carboxylate] |  | 2940
15 | COC1CCN(C(=O)N2CCN(c3ccc(-c4cc(-c5cnn(C)c5)cn5ncc(C#N)c45)cn3)CC2)CC1 [Example 376, 4-(6-(4-(4-methoxypiperidine-1-carbonyl)piperazin-1-yl)pyridin-3-yl)-6-(1-methyl-1H-pyrazol-4-yl)pyrazolo[1,5-a]pyridine-3-carbonitrile] |  | 1830
16 | COc1ccc(N(C)C(=O)N2CCN(c3ccc(-c4cc(-c5cnn(C)c5)cn5ncc(C#N)c45)cn3)CC2)cc1 [Example 383, 4-(5-(3-cyano-6-(1-methyl-1H-pyrazol-4-yl)pyrazolo[1,5-a]pyridine-4-yl)pyridin-2-yl)-N-(4-methoxyphenyl)-N-methylpiperazine-1-carboxamide] |  | 639
17 | Cn1cc(-c2cc(-c3ccc(N4CCN(CCc5ccccn5)CC4)nc3)c3c(C#N)cnn3c2)cn1 [Example 395, 6-(1-methyl-1H-pyrazol-4-yl)-4-(6-(4-(2-(pyridine-2-yl)ethyl)piperazin-1-yl)pyridin-3-yl)pyrazolo[1,5-a]pyridine-3-carbonitrile] |  | 490
18 | CC(C)[C@@H](O)C(=O)N1CCN(c2ncc(-c3cc(-c4cnn(C)c4)cn4ncc(C#N)c34)cn2)CC1 [Example 285, (R)-4-(2-(4-(2-hydroxy-3-methylbutanoyl)piperazin-1-yl)pyrimidin-5-yl)-6-(1-methyl-1H-pyrazol-4-yl)pyrazolo[1,5-a]pyridine-3-carbonitrile] | 1710 | 
19 | Cn1cc(-c2cc(-c3ccc(N4CCN(C(=O)C5(C#N)CC5)CC4)nc3)c3c(C#N)cnn3c2)cn1 [Example 348, 4-(6-(4-(1-cyanocyclopropane-carbonyl)piperazin-1-yl)pyridin-3-yl)-6-(1-methyl-1H-pyrazol-4-yl)pyrazolo[1,5-a]pyridine-3-carbonitrile] | 1410 | 
20 | Cn1cc(-c2cc(-c3ccc(N4CCC(N5CCCC5=O)CC4)nc3)c3c(C#N)cnn3c2)cn1 [Example 189, 6-(1-methyl-1H-pyrazol-4-yl)-4-(6-(4-(2-oxopyrrolidin-1-yl)piperidin-1-yl)pyridin-3-yl)pyrazolo[1,5-a]pyridine-3-carbonitrile] | 255 | 
21 | Cn1cc(-c2cc(-c3ccc(N4CC5(CCOC5)C4)nc3)c3c(C#N)cnn3c2)cn1 [Example 528, 4-(6-(6-oxa-2-azaspiro[3.4]octan-2-yl)pyridin-3-yl)-6-(1-methyl-1H-pyrazol-4-yl)pyrazolo[1,5-a]pyridine-3-carbonitrile 2,2,2-trifluoroacetate] |  | 1670
22 | Cn1cc(-c2cc(-c3ccc(N4CCN(C(=O)[C@H](O)c5cccc(Cl)c5)CC4)nc3)c3ccnn3c2)cn1 [Example 322, (R)-2-(3-chlorophenyl)-2-hydroxy-1-(4-(5-(6-(1-methyl-1H-pyrazol-4-yl)pyrazolo[1,5-a]pyridin-4-yl)pyridin-2-yl)piperazin-1-yl)ethanone] | 4860 | 
23 | Cn1cc(-c2cc(-c3ccc(N4CCN(Cc5cncc(Cl)c5)CC4)nc3)c3c(C#N)cnn3c2)cn1 [Example 430, 4-(6-(4-((5-chloropyridin-3-yl)methyl)piperazin-1-yl)pyridin-3-yl)-6-(1-methyl-1H-pyrazol-4-yl)pyrazolo[1,5-a]pyridine-3-carbonitrile] |  | 791
24 | Cn1cc(-c2cc(-c3ccc(N4CCC(C(=O)NOCC5CC5)CC4)nc3)c3c(C#N)cnn3c2)cn1 [Example 563, 1-(5-(3-cyano-6-(1-methyl-1H-pyrazol-4-yl)pyrazolo[1,5-a]pyridin-4-yl)pyridin-2-yl)-N-(cyclopropylmethoxy)piperidine-4-carboxamide] |  | 195
25 | CO[C@H](C(=O)N1CCN(c2ccc(-c3cc(-c4cnn(C)c4)cn4ncc(C#N)c34)cn2)CC1)c1ccccc1 [Example 84] | 1260 | 
26 | CC(C)[C@@H](O)C(=O)N1CC2(CCN(c3ccc(-c4cc(-c5cnn(C)c5)cn5ncc(C#N)c45)cn3)CC2)C1 [Example 216, (R)-4-(6-(2-(2-hydroxy-3-methylbutanoyl)-2,7-diazaspiro[3.5]nonan-7-yl)pyridin-3-yl)-6-(1-methyl-1H-pyrazol-4-yl)pyrazolo[1,5-a]pyridine-3-carbonitrile] | 574 | 
27 | Cn1cc(-c2cc(-c3ccc(N4CCN(C(=O)C(c5ccccc5)N5CCOCC5)CC4)nc3)c3c(C#N)cnn3c2)cn1 (centres unmarked) [Example 363, 6-(1-methyl-1H-pyrazol-4-yl)-4-(6-(4-(2-morpholino-2-phenylacetyl)piperazin-1-yl)pyridin-3-yl)pyrazolo[1,5-a]pyridine-3-carbonitrile bis(2,2,2-trifluoroacetate)] | 2640 | 
28 | Cn1cc(-c2cc(-c3ccc(N4CCOCC4)nc3)c3c(C#N)cnn3c2)cn1 [Example 224, 6-(1-methyl-1H-pyrazol-4-yl)-4-(6-morpholinopyridin-3-yl)pyrazolo[1,5-a]pyridine-3-carbonitrile] | 555 | 
29 | Cn1cc(-c2cc(-c3ccc(N4CCC(Cc5ccccc5)CC4)nc3)c3c(C#N)cnn3c2)cn1 [Example 535, 4-(6-(4-benzylpiperidin-l-yl)pyridin-3-yl)-6-(1-methyl-1H-pyrazol-4-yl)pyrazolo[1,5-a]pyridine-3-carbonitrile] |  | 374

Reference: US10023570B2 (Array BioPharma, Inc., priority 2015, dated 2018)
